Tested on: mouse oxaliplatin model of chemotherapy-induced neuropathy
Experiment: Static mechanical (tactile) allodynia, von Frey filaments, Study 2
Assay type: in vivo
Settings: Study 2; oxaliplatin treated mice, days assessed; BXQ-350 2 and 10 mg/kg
Protocol: Static mechanical tactile allodynia: Static mechanical (tactile) allodynia was assessed by measurement of withdrawal threshold using calibrated (force; g) von-Frey monofilaments (Touch-Test Sensory Evaluator; Scientific Marketing Associates) applied to the plantar surface of the left hind-paw. The animals were placed in individual Perspex boxes on a raised metal mesh for 30-40 min before the test to habituate. A series of graduated von Frey hairs (0.07, 0.16, 0.4, 0.6 and 1 g) were applied in sequence with a protocol of 1 sec on 1 sec off repeated 10 times. Each hair was applied perpendicularly to the center of the ventral surface of the paw until it bent slightly. The force applied to the hind-paw of the animal to induce 5 responses out of 10 trials was recorded as paw withdrawal threshold (PWT) 50%.
60 adult male C57/BL6 mice (Charles River), 6-7 weeks of age, were housed in groups of 5 in Perspex cages, in a controlled environment of constant temperature and humidity (temperature: 21±1° C., light: dark cycle of 12:12 hours), with food and water available ad libitum. Animals were allowed to recover from transportation for at least one week before commencing experiments.
Static mechanical tactile allodynia: The same apparatus and protocol were used as for Study 1.

## O=C([O-])C(=O)[O-].[NH-][C@@H]1CCCC[C@H]1[NH-].[Pt+4] (relative stereo) [Oxaliplatin, cis-[(1R,2R)-1,2-cyclohexanediamine-N,N′][oxalato(2)-O,O′] platinum]
  paw withdrawal threshold (PWT) levels (in words): induced consistent and persistent mechanical allodynic response
